Measurements as given in US20040208842A1, “Antimicrobial cleansing compositions and methods of use” (priority 2001, published 2004).
Values joined by “and” are separate entries in the source; they are usually repeats but may differ in a detail not shown here. Equal values may be shown once.

Key:
Enterococcus faecalis [1] = test: Antibiotic resistance profile by disc diffusion on MHA; format: cell-based; details: human burn isolate; further: key: R = resistant; I = intermediate; S = sensitive
Experimental: (§1) The organisms of this study were isolated from human burn patients. They included strains of methicillin resistant Staphylococcus aureus, and vancomycin resistant strains of Pseudomonas aeruginosa and Enterococcus faecalis. The bacterial isolates were propagated in or on Brain Heart Infusion broth (BHI), Mueller-Hinton Broth (MHB), blood agar (BA), Mueller-Hinton agar (MHA), enterococcus agar (EA), or 2× nutrient agar (2×NA).
(§2) Antibiotic resistance profiles were determined by the disc diffusion method on MHA (5).

Staphylococcus aureus [2] = test: as above; format: cell-based; details: human burn isolate
Experimental: as §1, §2

Pseudomonas aeruginosa [3] = test: as above; format: cell-based; details: human burn isolate
Experimental: as §1, §2

Enterococcus faecalis [4] = test: MIC (broth-dilution microtiter) and FIC/isobologram (microtiter checkerboard) of EDTA-Tris and antibiotics; format: cell-based; details: Ent. faecalis
Experimental: (§3) Agents and Chem. 210-217. (1967) and Sparks et al., Vet. Res. Comm. 18, 241-249 (1994), incorporated herein by reference in their entireties.
(§4) Then 0.05 ml of an 18-hour old culture of a test organism, containing 10^6 colony-forming units (CFU)/ml, was added to each well. Controls for the culture and media were included in each plate. Plates were covered and incubated at 37° Celsius for 18-24 hours.
(§5) To generate isobolograms, FICs of the two test solutions were plotted individually on the x-axis and y-axis to determine the effect of combining the two test solutions on bacterial growth. A line that curves away from the zero point and the coordinates indicates antagonism.
(§6) A numerical score or fractional inhibitory concentration (FIC) index was determined. The FIC index is equal to the sum of the values of FIC for the individual drugs: [formula]
(§7) An FIC index greater than 1.0 indicates an antagonistic interaction, an FIC index of 1.0 indicates addition, and an FIC index of less than or equal to 0.5 indicates synergism between the two test agents.
as §1

Staphylococcus aureus [5] = test: as above; format: cell-based; details: Staph. aureus
Experimental: as §3, §4, §5, §6, §7, §1

Pseudomonas aeruginosa [6] = test: as above; format: cell-based; details: Ps. aeruginosa
Experimental: as §3, §4, §5, §6, §7, §1

Enterococcus faecalis [7] = test: Minimal Bactericidal Concentration (MBC) of EDTA and neomycin in 50 mM Tris; format: cell-based
Description: as §1

Staphylococcus aureus [8] = test: as above; format: cell-based; details: Staph. aureus
Description: as §1

Pseudomonas aeruginosa [9] = test: as above; format: cell-based; details: Ps. aeruginosa
Description: as §1

E. coli = test: MIC and MBC of cleanser formulation and components; format: cell-based, Escherichia coli; details: cocamidopropyl betaine alone
Experimental: (§8) The solution containing 10% cocamidopropyl betaine was selected for further testing. The formulation was tested against Pseudomonas aeruginosa, Proteus mirabilis, […] coli, Staphylococcus intermedius, Malassezia pachydermatis, and Candida albicans.

Proteus mirabilis = test: MIC and MBC of cleanser formulation and components; format: cell-based; details: P. mirabilis; cocamidopropyl betaine alone
Experimental: as §8

Malassezia pachydermatis = test: MIC and MBC of cleanser formulation and components; format: cell-based; details: M. pachydermatis; cocamidopropyl betaine alone
Experimental: as §8

Candida albicans = test: MIC and MBC of cleanser formulation and components; format: cell-based; details: C. albicans; cocamidopropyl betaine alone
Experimental: as §8

Pseudomonas aeruginosa [10] = test: MIC and MBC of cleanser formulation and components; format: cell-based; details: P. aeruginosa; cocamidopropyl betaine alone
Experimental: as §8

[11] = tested on: Staphylococcus intermedius; test: MIC and MBC of cleanser formulation and components; format: cell-based; details: S. intermedius; cocamidopropyl betaine alone
Experimental: as §8
Wherever Antibiotic resistance profile is given: key: R = resistant; I = intermediate; S = sensitive.

gentamicin [Gm]
Antibiotic resistance profile (Enterococcus faecalis [1]): R | Antibiotic resistance profile (Staphylococcus aureus [2]): S | Antibiotic resistance profile (Pseudomonas aeruginosa [3]): I

CN[C@H](CC(C)C)C(=O)N[C@H]1C(=O)N[C@@H](CC(N)=O)C(=O)N[C@H]2C(=O)N[C@H]3C(=O)N[C@H](C(=O)N[C@H](C(=O)O)c4cc(O)cc(O)c4-c4cc3ccc4O)[C@H](O)c3ccc(c(Cl)c3)Oc3cc2cc(c3O[C@@H]2O[C@H](CO)[C@@H](O)[C@H](O)[C@H]2O[C@H]2C[C@](C)(N)[C@H](O)[C@H](C)O2)Oc2ccc(cc2Cl)[C@H]1O [Va, vancomycin]
Antibiotic resistance profile (Enterococcus faecalis [1]): R | Antibiotic resistance profile (Staphylococcus aureus [2]): S | Antibiotic resistance profile (Pseudomonas aeruginosa [3]): R

O=C(O)CN(CCN(CC(=O)O)CC(=O)O)CC(=O)O [EDTA, ethylenediamenetetracetic acid]
MIC, EDTA Individually Administered (Enterococcus faecalis [4]; EDTA in 50 mM Tris alone): 15630 µM | MIC, EDTA Individually Administered (Staphylococcus aureus [5]; EDTA in 50 mM Tris alone): 1000 µM | MIC, EDTA Individually Administered (Pseudomonas aeruginosa [6]; EDTA in 50 mM Tris alone): 1250 µM

neomycin
MIC, antibiotic Individually Administered (Enterococcus faecalis [4]; antibiotic alone): 3130 µg/mL | MIC, antibiotic Individually Administered (Staphylococcus aureus [5]; antibiotic alone): 3130 µg/mL | MIC, antibiotic Individually Administered (Pseudomonas aeruginosa [6]; antibiotic alone): 1000 µg/mL | MBC of Neomycin, Individually Administered (Enterococcus faecalis [7]; En. faecalis, in 50 mM Tris): 25000 µg/mL | MBC of Neomycin, Co-administered (Enterococcus faecalis [7]; En. faecalis, with EDTA, in 50 mM Tris): 6250 µg/mL | Decrease of MBC value when EDTA and neomycin combined compared to individually administered (Enterococcus faecalis [7]; Ent. faecalis): 75% | Decrease of MBC value when EDTA and neomycin combined compared to individually administered (Staphylococcus aureus [8]): about 50% and 50% | MBC of Neomycin, Individually Administered (Staphylococcus aureus [8]; in 50 mM Tris): 3130 µg/mL | MBC of Neomycin, Co-administered (Staphylococcus aureus [8]; with EDTA, in 50 mM Tris): 1560 µg/mL | MBC of Neomycin, Individually Administered (Pseudomonas aeruginosa [9]): 5000 µg/mL | MBC of Neomycin, Co-administered (Pseudomonas aeruginosa [9]; with EDTA): 40 µg/mL | Antibiotic resistance profile (Enterococcus faecalis [1]): R | Antibiotic resistance profile (Staphylococcus aureus [2]): R | Antibiotic resistance profile (Pseudomonas aeruginosa [3]): R

cocamidopropyl betaine
MBC (E. coli): 50% of stock solution | MIC (E. coli): 25% of stock solution | MBC (Proteus mirabilis): 50% of stock solution | MIC (Proteus mirabilis): 25% of stock solution | MBC (Malassezia pachydermatis): 0.3% of stock solution | MIC (Malassezia pachydermatis): 0.1% of stock solution | MBC (Candida albicans): 0.3% of stock solution | MIC (Candida albicans): 0.1% of stock solution | MBC (Pseudomonas aeruginosa [10]): 50% of stock solution | MIC (Pseudomonas aeruginosa [10]): 25% of stock solution | MBC [11]: 0.1% of stock solution | MIC [11]: 0.1% of stock solution
